{"source": "patent US7744921B2", "about": "“Liposome loading with metal ions” (Celator Pharmaceuticals, Inc., priority 2001, dated 2010)", "key": {"[1]": {"experiment": "Drug-to-lipid ratio of passively encapsulated first drug before/after loading of second drug", "conditions": "DSPC/DSPG (80:20)", "description": "Prior to measurement of absorbance, liposomes were solubilized in a solution containing Triton X-100.\nSamples were extruded and external buffers exchanged into SHE, pH 7.4, using a hand-held tangential flow dialysis column. […] Atomic absorption spectrometry (AA) was used to determine carboplatin concentrations and absorbance at 370 nm was measured to determine irinotecan concentrations."}, "[2]": {"experiment": "Active (metal-based, citrate or ionophore) loading of drug into liposomes; spin column, drug-to-lipid ratio", "format": "physicochemical"}, "[3]": {"experiment": "Active (metal-based, citrate or ionophore) loading of drug into liposomes; spin column, drug-to-lipid ratio", "format": "physicochemical", "conditions": "for loading efficiency: 300 mM MnSO4, 37° C.", "experimental": "Lipids were dissolved in chloroform solution and subsequently dried under a stream of nitrogen gas and placed in a vacuum pump to remove solvent. Unless otherwise specified, trace levels of radioactive lipid 3H-CHE were added to quantify lipid during the formulation process. The resulting lipid film was placed under high vacuum for a minimum of 2 hours. The lipid film was hydrated in the solution indicated to form multilamellar vesicles (MLVs). The resulting preparation was extruded 10 times through stacked polycarbonate filters with an extrusion apparatus (Lipex Biomembranes, Vancouver, BC) to achieve a mean liposome size between 80 and 150 nm. All constituent lipids of liposomes are reported in mole %.\nAt various time points after initiation of drug loading, aliquots were removed and passed through a Sephadex G-50 spin column to separate free from encapsulated drug. To a specified volume of eluant, Triton X-100 or N-ocyl beta-D-glucopyranoside (OGP) was added to solubilize the liposomes. Following addition of detergent, the mixture was heated to the cloud point of the detergent and allowed to cool to room temperature before measurement of the absorbance or fluorescence. Drug concentrations were calculated by comparison to a standard curve.\nIn order to determine whether copper loading of irinotecan in the absence of a pH gradient could occur using a cholesterol-free formulation, DSPC/DSPG (80:20 mole ratio) liposomes containing copper(II) gluconate were prepared with an external and internal pH of 7.4. […] The lipid films were hydrated in 100 mM Cu(II) gluconate adjusted to pH 7.4 with triethanolamine (TEA) and extruded at 70° C. […] Irinotecan was added to the liposome preparation at a 0.1:1 drug-to-lipid mole ratio and incubated at 50° C. The extent of drug loading was determined as described in the methods by measuring absorbance at 370 nm and lipid levels were determined by liquid scintillation counting.\nLoading of daunorubicin into DSPC/DSPG (90:10 mole ratio) liposomes containing encapsulated CuSO4 buffered to pH 7.4 was also investigated. […] A solution of 150 mM CuSO4, 20 mM histidine (adjusted to pH 7.4 using TEA), was employed as the hydration medium and MLVs were extruded at 70° C. […] Daunorubicin was loaded at a 0.1:1 drug/lipid weight ratio. A drug-to-lipid ratio at various time points during loading was determined by measuring absorbance at 480 nm after solubilization in detergent to quantify daunorubicin as described; lipid levels were determined by liquid scintillation counting.\nThe liposomes were prepared as described in the methods by hydrating lipid films in a solution of 100 mM copper(II) gluconate adjusted to pH 7.4 with TEA. Liposomes were extruded at 65° C. and the external buffer of the liposomes was exchanged to SHE, pH 7.4 by tangential flow dialysis. Liposomes were incubated with irinotecan at a 0.1:1 drug-to-lipid weight ratio at 50° C. and the extent of drug loading was determined as described by measuring absorbance at 370 nm after solubilization by detergent.\nIn addition to copper loading, loading of drug using MnSO4 containing liposomes in the absence of a pH gradient was also investigated. […] Lipids films were prepared as described and hydrated in 300 mM MnSO4 buffered to pH 7.4 with 20 mM imidazole (initial pH was adjusted to 7.4 with concentrated HCl) and extrusion was carried out at 70° C. The samples were run down a Sephadex G-50 column to exchange the exterior buffer with SHE, pH 7.4."}, "[4]": {"experiment": "Plasma drug-to-lipid ratio 24 hours after intravenous administration of daunorubicin liposomes", "format": "in vivo", "conditions": "DSPC/DSPE-PEG2000 (95:5) liposomes with citrate pH 4.0, CuSO4 or MnSO4; Balb/c mice, lipid 100 mg/kg, daunorubicin 10 mg/kg", "experimental": "DSPC/DSPE-PEG2000 liposomes were prepared as described and extruded at 75° C. The external solution was exchanged to HBS by dialysis against HBS. […] Plasma lipid concentrations were determined by liquid scintillation counting. […] The resulting mixture was mixed and 2 mL of 1:1 isopropanol/chloroform was added followed by vortexing. The samples were frozen at −20° C. overnight or −80° C. for 1 hour to promote protein aggregation, brought to room temperature, vortexed and centrifuged at 3000 rpm for 10 minutes."}, "[5]": {"experiment": "Precipitation of MnSO4 in pH 7.4 HEPES buffer (metal compatible solution)", "format": "physicochemical", "conditions": "300 mM solution of MnSO4 in pH 7.4 HEPES buffer", "experimental": "Preferably, the metal solution should be clear and soluble, free of aggregation, precipitation or flocculation for at least about 4 hours. By way of example, a 300 mM solution of MnSO4 in pH 7.4 HEPES buffer as described in Cheung, et al. [supra] is not a metal compatible solution as it produces an obvious brown precipitate of Mn(OH)2 comprising approximately 6-7 molar % of the manganese added to the solution.\nAn alternative preferred method of determining whether a metal solution is metal compatible is by centrifugation (e.g. 100 ml sample at 1000 rpm for 10 minutes) to collect any precipitate, measuring the amount of precipitate collected and determining the proportion of the metal added to the original solution present in the precipitate. The amount of metal in the precipitate should not exceed about 1 molar % of the amount of metal added to the original solution."}, "[6]": {"conditions": "DPPC/DSPE-PEG2000 (95:5), pH gradient citrate loading (300 mM citrate, pH 4.0), 37° C."}}, "note": "Entries after “also recorded” stand apart in the source; their conditions may differ. Read-outs that look alike come from different tables or passages of the source.", "data": [{"compound": "N.N.O=C([O-])C1(C(=O)[O-])CCC1.[Pt+2]", "note": "[carboplatin]", "values": [{"measurement": "carboplatin drug-to-lipid weight ratio after loading of irinotecan", "setting": "[1]; 150 mM CuSO4 pH 7.4, irinotecan loaded at 60° C.", "result": 0.025}, {"measurement": "initial carboplatin drug-to-lipid weight ratio", "setting": "[1]; 150 mM CuSO4 pH 7.4, passively encapsulated", "result": 0.030}]}, {"compound": "COc1cccc2c1C(=O)c1c(O)c3c(c(O)c1C2=O)C[C@@](O)(C(=O)CO)C[C@@H]3O[C@H]1C[C@H](N)[C@H](O)[C@H](C)O1", "note": "[doxorubicin]", "values": [{"measurement": "accumulation relative to MnSO4 and citrate loading (in words)", "setting": "[2]; DMPC/Chol (55:45), 300 mM MnCl2, external SHE pH 7.5, 60° C., weight ratio 0.2:1", "result": "less complete"}, {"measurement": "time to essentially complete loading", "setting": "[2]; DMPC/Chol (55:45), 300 mM MnSO4, external SHE pH 7.5, 60° C., weight ratio 0.2:1", "result": "≤ 5", "unit": "min"}, {"measurement": "loading efficiency", "setting": "[2]; DPPC/DSPE-PEG2000 (95:5), 300 mM MnSO4, 37° C., initial drug/lipid weight ratio 0.3:1", "result": "> 80", "unit": "%"}, {"measurement": "maximum drug-to-lipid weight ratio achieved", "setting": "[2]; [6]", "result": "< 0.075"}, {"measurement": "sequential loading of two drugs into a single liposome (in words)", "setting": "[2]; DSPC/Chol (55:45), 300 mM CuSO4, 60° C., irinotecan 0.2:1 then doxorubicin 0.15:1 mole ratio", "result": "efficiently loaded"}, {"measurement": "time to essentially complete loading", "setting": "[3]; DMPC/Chol (55:45), 300 mM citrate pH 3.5, external HBS, 60° C., weight ratio 0.2:1", "result": "≤ 5", "unit": "min"}, {"measurement": "loading efficiency", "setting": "[3]; DPPC/DSPE-PEG2000 (95:5), initial drug/lipid weight ratio 0.1:1", "result": "> 95", "unit": "%"}, {"measurement": "loading efficiency", "setting": "[3]; DPPC/DSPE-PEG2000 (95:5), initial drug/lipid weight ratio 0.2:1", "result": "> 90", "unit": "%"}, {"measurement": "encapsulation efficiency as doxorubicin/lipid weight ratio increased from 0.1 to 0.3 (in words)", "setting": "[3]; [6]", "result": "substantial reduction in encapsulation efficiency"}, {"measurement": "added drug encapsulated", "setting": "[3]; DSPC/Chol (55:45), 300 mM CoCl2, SHE pH 7.5, weight ratio 0.1:1, 60° C., within 10 minutes", "result": "> 90", "unit": "%"}, {"measurement": "leakage during vincristine encapsulation (in words)", "setting": "[3]; DSPC/Chol (55:45), 300 mM MnSO4, doxorubicin preloaded at 0.2:1 wt/wt, vincristine loading at 50° C.", "result": "no significant leakage"}]}, {"compound": "COc1cccc2c1C(=O)c1c(O)c3c(c(O)c1C2=O)C[C@@](O)(C(C)=O)C[C@@H]3O[C@H]1C[C@H](N)[C@H](O)[C@H](C)O1", "note": "[daunorubicin]", "values": [{"measurement": "drug encapsulation", "setting": "[2]", "result": 80, "unit": "%"}, {"measurement": "encapsulation", "setting": "[2]", "result": "> 95", "unit": "%"}, {"measurement": "added drug encapsulated", "setting": "[3]", "result": "> 90", "unit": "%"}, {"measurement": "encapsulation compared to CuCl2 (in words)", "setting": "[3]", "result": "not as efficient"}, {"measurement": "loading (in words)", "setting": "[3]", "result": "most efficient; also recorded: occurred to a lesser extent; also recorded: less efficient"}, {"measurement": "daunorubicin to lipid ratio achieved", "setting": "[3]; DSPC/DSPE-PEG2000 (95:5), 300 mM MnSO4, loading temperature 60° C.", "result": "0.07 mol:mol"}, {"measurement": "drug encapsulation", "setting": "[3]; DSPC/DSPE-PEG2000 (95:5), 300 mM NiSO4, SHE pH 7.4, weight ratio 0.2:1, 60° C., within 5 minutes", "result": "greater than 75%"}, {"measurement": "loading (in words)", "setting": "[3]; pH 7.4", "result": "efficiently load"}, {"measurement": "uptake into liposomes", "setting": "[3]; pH 7.4", "result": 100, "unit": "%"}, {"measurement": "plasma drug-to-lipid ratio 24 hours after intravenous administration (in words)", "setting": "[4]", "result": "differing plasma drug-to-lipid ratios"}]}, {"compound": "O=S(=O)([O-])[O-].[Mn+2]", "note": "[MnSO4 in pH 7.4 HEPES buffer, MnSO4]", "values": [{"measurement": "proportion of added manganese in Mn(OH)2 precipitate", "setting": "[5]", "result": "6-7 molar %"}]}]}
